Assay results taken from ChEMBL document CHEMBL4396916, “Novel potent substituted 4-amino-2-thiopyrimidines as dual VEGFR-2 and BRAF kinase inhibitors” (Eur J Med Chem, 2019).
pIC50: −log10 of the molar value. One block for each molecule: values may come before it.

Key:
MCF7 [1] = assay: Inhibition of VEGFR2 level in human MCF7 cells at 10 uM measured after 48 hrs by ELISA relative to control; type: functional; settings: MCF7, 48 h
[2] = biological target: Vascular endothelial growth factor receptor 2 (Homo sapiens, UniProt P35968); assay: Inhibition of human N-terminal GST tagged VEGFR-2 expressed in baculovirus infected Sf9 cells using poly (Glu,Tyr) 4:1 as substrate in presence of ATP by Kinase-Glo luminescence assay
Chain of Vascular endothelial growth factor receptor 2 (P35968 whole entry): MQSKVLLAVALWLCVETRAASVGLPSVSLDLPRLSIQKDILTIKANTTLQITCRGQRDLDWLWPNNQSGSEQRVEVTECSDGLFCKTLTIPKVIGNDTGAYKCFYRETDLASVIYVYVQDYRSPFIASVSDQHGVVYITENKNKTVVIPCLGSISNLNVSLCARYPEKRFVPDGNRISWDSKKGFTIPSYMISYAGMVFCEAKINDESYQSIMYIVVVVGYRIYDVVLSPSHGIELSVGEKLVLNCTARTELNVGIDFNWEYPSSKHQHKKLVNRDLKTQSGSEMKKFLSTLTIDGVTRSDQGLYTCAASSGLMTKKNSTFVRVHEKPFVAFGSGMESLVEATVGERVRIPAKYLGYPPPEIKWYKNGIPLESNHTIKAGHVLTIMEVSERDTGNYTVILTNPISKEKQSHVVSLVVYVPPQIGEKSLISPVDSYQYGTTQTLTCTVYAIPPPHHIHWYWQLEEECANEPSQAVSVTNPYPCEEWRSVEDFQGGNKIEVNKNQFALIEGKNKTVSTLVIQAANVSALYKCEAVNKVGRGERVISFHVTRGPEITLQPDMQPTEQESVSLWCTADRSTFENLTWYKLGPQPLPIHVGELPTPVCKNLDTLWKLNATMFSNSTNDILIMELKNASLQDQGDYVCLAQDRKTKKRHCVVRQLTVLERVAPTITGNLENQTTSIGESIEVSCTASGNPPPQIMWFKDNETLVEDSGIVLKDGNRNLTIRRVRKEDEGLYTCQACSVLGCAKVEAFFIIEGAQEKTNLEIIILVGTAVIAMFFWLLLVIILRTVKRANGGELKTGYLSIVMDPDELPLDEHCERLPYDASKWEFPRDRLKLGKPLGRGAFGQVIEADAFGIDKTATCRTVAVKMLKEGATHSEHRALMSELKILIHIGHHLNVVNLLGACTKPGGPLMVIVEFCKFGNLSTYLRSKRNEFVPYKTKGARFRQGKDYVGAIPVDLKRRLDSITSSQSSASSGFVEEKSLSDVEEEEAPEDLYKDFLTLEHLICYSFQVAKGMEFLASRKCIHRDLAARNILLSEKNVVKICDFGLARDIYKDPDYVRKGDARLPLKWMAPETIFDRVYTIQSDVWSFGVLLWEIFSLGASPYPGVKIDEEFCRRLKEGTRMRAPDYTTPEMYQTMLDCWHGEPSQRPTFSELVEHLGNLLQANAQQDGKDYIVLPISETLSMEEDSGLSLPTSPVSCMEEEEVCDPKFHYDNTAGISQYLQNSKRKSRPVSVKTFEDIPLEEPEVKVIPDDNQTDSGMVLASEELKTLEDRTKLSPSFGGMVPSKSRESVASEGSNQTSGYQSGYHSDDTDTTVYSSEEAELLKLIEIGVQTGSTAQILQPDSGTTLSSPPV

MCF7 [3] = assay: Cytotoxicity against human MCF7 cells expressing VEGFR2 and wild type BRAF measured after 48 hrs by sulforhodamine B assay; type: functional, cell-based; settings: MCF7, 48 h
HOP-62 = assay: Growth inhibition of human HOP62 cells at 10 uM incubated for 48 hrs by sulforhodamine B assay relative to control; type: functional; settings: HOP-62, 48 h, read-out: GI
T47D [4] = assay: Cytotoxicity against human T47D cells expressing wild type BRAF measured after 48 hrs by sulforhodamine B assay; type: functional, cell-based
KM12 = assay: Growth inhibition of human KM12 cells at 10 uM incubated for 48 hrs by sulforhodamine B assay relative to control; type: functional; settings: KM12, 48 h, read-out: GI
A498 = assay: Growth inhibition of human A498 cells at 10 uM incubated for 48 hrs by sulforhodamine B assay relative to control; type: functional; settings: A498, 48 h, read-out: GI
UACC-62 = assay: Growth inhibition of human UACC62 cells at 10 uM incubated for 48 hrs by sulforhodamine B assay relative to control; type: functional; settings: UACC-62, 48 h, read-out: GI
SF-295 = assay: Growth inhibition of human SF295 cells at 10 uM incubated for 48 hrs by sulforhodamine B assay relative to control; type: functional; settings: SF-295, 48 h, read-out: GI
A549 = assay: Growth inhibition of human A549/ATCC cells at 10 uM incubated for 48 hrs by sulforhodamine B assay relative to control; type: functional; settings: A549, 48 h, read-out: GI
MOLT-4 = assay: Growth inhibition of human MOLT4 cells at 10 uM incubated for 48 hrs by sulforhodamine B assay relative to control; type: functional; settings: MOLT-4, 48 h, read-out: GI
CCRF-CEM = assay: Growth inhibition of human CCRF-CEM cells at 10 uM incubated for 48 hrs by sulforhodamine B assay relative to control; type: functional; settings: read-out: GI
NCI-H23 = assay: Growth inhibition of human NCI-H23 cells at 10 uM incubated for 48 hrs by sulforhodamine B assay relative to control; type: functional; settings: NCI-H23, 48 h, read-out: GI
HCT-15 = assay: Growth inhibition of human HCT15 cells at 10 uM incubated for 48 hrs by sulforhodamine B assay relative to control; type: functional; settings: HCT-15, 48 h, read-out: GI
EKVX = assay: Growth inhibition of human EKVX cells at 10 uM incubated for 48 hrs by sulforhodamine B assay relative to control; type: functional; settings: read-out: GI
K562 = assay: Growth inhibition of human K562 cells at 10 uM incubated for 48 hrs by sulforhodamine B assay relative to control; type: functional; settings: K562, 48 h, read-out: GI
SK-MEL-5 = assay: Growth inhibition of human SK-MEL-5 cells at 10 uM incubated for 48 hrs by sulforhodamine B assay relative to control; type: functional; settings: SK-MEL-5, 48 h, read-out: GI
[5] = biological target: Serine/threonine-protein kinase B-raf (Homo sapiens, UniProt P15056); assay: Inhibition of human wild type BRAF by Kinase-Glo luminescence assay
Chain of Serine/threonine-protein kinase B-raf (P15056 whole entry): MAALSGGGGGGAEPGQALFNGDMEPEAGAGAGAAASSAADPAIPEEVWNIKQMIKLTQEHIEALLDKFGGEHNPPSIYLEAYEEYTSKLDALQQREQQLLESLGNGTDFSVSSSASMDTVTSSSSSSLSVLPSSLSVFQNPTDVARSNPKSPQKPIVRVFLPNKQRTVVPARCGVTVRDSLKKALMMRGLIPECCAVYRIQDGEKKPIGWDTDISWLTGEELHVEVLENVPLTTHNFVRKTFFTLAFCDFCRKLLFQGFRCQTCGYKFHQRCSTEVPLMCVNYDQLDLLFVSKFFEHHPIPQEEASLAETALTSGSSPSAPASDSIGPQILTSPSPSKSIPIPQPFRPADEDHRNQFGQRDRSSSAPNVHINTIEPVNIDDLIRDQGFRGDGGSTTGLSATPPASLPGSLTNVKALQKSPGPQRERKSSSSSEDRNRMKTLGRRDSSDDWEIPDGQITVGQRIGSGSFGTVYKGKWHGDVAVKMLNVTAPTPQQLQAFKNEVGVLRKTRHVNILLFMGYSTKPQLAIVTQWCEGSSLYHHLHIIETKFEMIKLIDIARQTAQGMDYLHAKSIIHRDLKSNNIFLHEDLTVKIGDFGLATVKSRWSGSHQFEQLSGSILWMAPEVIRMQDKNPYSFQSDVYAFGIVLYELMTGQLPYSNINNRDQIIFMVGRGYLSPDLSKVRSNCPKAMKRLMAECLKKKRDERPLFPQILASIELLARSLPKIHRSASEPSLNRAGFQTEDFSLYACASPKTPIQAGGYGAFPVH

NCI-H226 = assay: Growth inhibition of human NCI-H226 cells at 10 uM incubated for 48 hrs by sulforhodamine B assay relative to control; type: functional; settings: NCI-H226, 48 h, read-out: GI
MDA-MB-468 = assay: Growth inhibition of human MDA-MB-468 cells at 10 uM incubated for 48 hrs by sulforhodamine B assay relative to control; type: functional; settings: MDA-MB-468, 48 h, read-out: GI
NCI/ADR-RES = assay: Growth inhibition of human NCI/ADR-RES cells at 10 uM incubated for 48 hrs by sulforhodamine B assay relative to control; type: functional; settings: read-out: GI
CAKI-1 = assay: Growth inhibition of human Caki1 cells at 10 uM incubated for 48 hrs by sulforhodamine B assay relative to control; type: functional; settings: CAKI-1, 48 h, read-out: GI
PC-3 = assay: Growth inhibition of human PC3 cells at 10 uM incubated for 48 hrs by sulforhodamine B assay relative to control; type: functional; settings: PC-3, 48 h, read-out: GI
T47D [6] = assay: Growth inhibition of human T47D cells at 10 uM incubated for 48 hrs by sulforhodamine B assay relative to control; type: functional; settings: read-out: GI
ACHN = assay: Growth inhibition of human ACHN cells at 10 uM incubated for 48 hrs by sulforhodamine B assay relative to control; type: functional; settings: read-out: GI
UO-31 = assay: Growth inhibition of human UO31 cells at 10 uM incubated for 48 hrs by sulforhodamine B assay relative to control; type: functional; settings: UO-31, 48 h, read-out: GI
MCF7 [7] = assay: Growth inhibition of human MCF7 cells at 10 uM incubated for 48 hrs by sulforhodamine B assay relative to control; type: functional; settings: MCF7, 48 h, read-out: GI
NCI-H522 = assay: Growth inhibition of human NCI-H522 cells at 10 uM incubated for 48 hrs by sulforhodamine B assay relative to control; type: functional; settings: NCI-H522, 48 h, read-out: GI
OVCAR-4 = assay: Growth inhibition of human OVCAR4 cells at 10 uM incubated for 48 hrs by sulforhodamine B assay relative to control; type: functional; settings: OVCAR-4, 48 h, read-out: GI
OVCAR-8 = assay: Growth inhibition of human OVCAR8 cells at 10 uM incubated for 48 hrs by sulforhodamine B assay relative to control; type: functional; settings: OVCAR-8, 48 h, read-out: GI
RPMI-8226 = assay: Growth inhibition of human RPMI8226 cells at 10 uM incubated for 48 hrs by sulforhodamine B assay relative to control; type: functional; settings: RPMI-8226, 48 h, read-out: GI

SMILES: O=C(O)c1ccc(Nc2ccnc(SCC(=O)c3ccc(-c4ccccc4)cc3)n2)cc1
pIC50 [2]: 6.24
pIC50 (MCF7 [3]): 4.31

SMILES: O=C(O)c1ccc(Nc2ccnc(SCC(=O)c3ccc([N+](=O)[O-])cc3)n2)cc1
pIC50 [2]: < 5.00
pIC50 (MCF7 [3]): 4.27

SMILES: CCOC(=O)c1ccc(Nc2ccnc(SCC(=O)c3ccc(Cl)cc3)n2)cc1
pIC50 [2]: < 5.00
pIC50 (MCF7 [3]): 4.70

SMILES: CC(=O)c1ccc(Nc2ccnc(SCC(=O)c3ccc(Cl)cc3)n2)cc1
inhibition of growth at 10 µM (HOP-62): 14%
pIC50 (T47D [4]): 4.84
inhibition of growth at 10 µM (KM12): 11%
inhibition of growth at 10 µM (A498): 19%
inhibition of growth at 10 µM (UACC-62): 34%
inhibition of growth at 10 µM (SF-295): 14%
inhibition of growth at 10 µM (A549): 20%
inhibition of growth at 10 µM (MOLT-4): 33%
inhibition of growth at 10 µM (CCRF-CEM): 29%
inhibition of growth at 10 µM (NCI-H23): 13%
inhibition of growth at 10 µM (HCT-15): 14%
inhibition of growth at 10 µM (EKVX): 10%
inhibition of growth at 10 µM (K562): 19%
inhibition of growth at 10 µM (SK-MEL-5): 65%
pIC50 [5]: 6.19
inhibition of growth at 10 µM (NCI-H226): 21%
inhibition of growth at 10 µM (MDA-MB-468): 27%
inhibition of growth at 10 µM (NCI/ADR-RES): 46%
inhibition of growth at 10 µM (CAKI-1): 21%
inhibition of growth at 10 µM (PC-3): 30%
inhibition of growth at 10 µM (T47D [6]): 71%
inhibition of growth at 10 µM (ACHN): 11%
inhibition of growth at 10 µM (UO-31): 33%
pIC50 [2]: 6.66
inhibition of growth at 10 µM (MCF7 [7]): 19%
pIC50 (MCF7 [3]): 4.26
inhibition of growth at 10 µM (NCI-H522): 29%
inhibition of growth at 10 µM (OVCAR-4): 18%
inhibition of growth at 10 µM (OVCAR-8): 29%
inhibition of growth at 10 µM (RPMI-8226): 46%

SMILES: CCOC(=O)c1ccc(Nc2ccnc(SCC(=O)c3ccc(-c4ccccc4)cc3)n2)cc1
pIC50 [2]: 6.47
pIC50 (MCF7 [3]): 4.16

The next lines start with results.

pIC50 [2]: 5.84
SMILES: COc1ccc(C(=O)CSc2nccc(Nc3ccc(C(=O)O)cc3)n2)cc1
inhibition at 10 µM (MCF7 [1]): 40%
pIC50 (MCF7 [3]): 4.42

pIC50 [2]: < 5.00
SMILES: O=C(O)c1ccc(Nc2ccnc(SCC(=O)c3ccc(Br)cc3)n2)cc1
pIC50 (MCF7 [3]): 4.09

pIC50 [2]: 6.31
SMILES: COc1ccc(C(=O)CSc2nccc(Nc3ccc(C(C)=O)cc3)n2)cc1
pIC50 (MCF7 [3]): 4.10
